The values that follow come from patent publication US20260102492A1, “Inhibition of Natural Killer Cell Cytoxocity” (University of Cincinnati, priority 2022, published 2026).

For test [1], the system named is HNSCC patient-derived NK cells. Description: CXCL1 ELISA of NK cell culture supernatant. Type of test: cell-based, Human. The protocol: Healthy donor and HNSCC NK cells were isolated from PBMCs and were treated for 24 hrs with vehicle or metformin. Supernatant was collected and analyzed by ELISA (analyzed by one way ANOVA. n=10).
HNSCC NK cells were isolated from PBMCs and treated with vehicle, 12 mM metformin, 50 ng CXCL1, 10 uM everolimus, or 10 uM BP-1-102 for 24 hr. The cells were washed and plated in fresh media. After 24 hrs, supernatant was collected for ELISA.
(In general: An ELISA detects its analyte on a solid surface through an enzyme-linked reagent.)

For test [2], the system named is HNSCC patient-derived NK cells. The experiment in a line: NK cell perforin ELISA after co-culture with Cal27 cells. Type of test: cell-based, Human. The method, then:
For NK cell perforin assays, NK cells were treated with drug for 24 hrs, washed, and co-cultured with Cal27 cells for 4 hours. Supernatant was then collected, snap frozen in liquid nitrogen and stored at −80 until thawed for single use. For patient samples, undiluted plasma was added directly to ELISA. ELISA kit for perforin was obtained from ABCAM. ELISA was performed according to the manufacturer's protocol. Protocols included overnight coating of capture antibody diluted by lot number recommendation, 1 hr block with 400 uL 2% BSA in PBS, 2 hr sample incubation at room temperature of 100 uL sample (no dilution of sample was performed in these experiments), 2 hr […] diluted by lot number recommendation, 20 min Streptavidin incubation with 100 uL of 1:40 dilution of stock, and 15 min incubation with 100 uL included TMB ELISA reagent. 50 uL stop solution of in house 2N […] was added to stop reaction before reading at […] wavelength on plate reader. All plates included standard curve prepared per lot number recommendation with range of 35-2000 pg.
HNSCC patient-derived NK cells were treated with exogenous CXCL1 and an inhibitor of the CXCL1 receptor, CXCR2, or metformin. Patient-derived NK cells were exposed to Cal27 cells for 4 hours and supernatant was collected for perforin analysis by ELISA. Specifically, HNSCC NK cells derived from PBMCs were treated with 50 ng CXCL1, 12 mM metformin, or 10 nM CXCR2i (navarixin) and subjected to perforin against Cal27 target cells. Cells were analyzed by flow and analyzed by one way ANOVA. n=8.
Specifically, HNSCC NK cells were treated with vehicle, metformin, or 10 uM AMPK inhibitor (Dosomorphin) for 24 hrs, washed, and co-cultured with Cal27 cells for 4 hrs. Supernatant was collected for ELISA and analyzed by one way ANOVA. n=5.
HNSCC patient-derived NK cells were treated with vehicle, metformin, 10 uM mTOR inhibitor (Everolimus), or 10 uM mTOR activator (MHY1485) for 24 hrs, washed, and co-cultured with Cal27 cells for 4 hrs. Supernatant was collected for ELISA and analyzed by one way ANOVA. n=5.
As pSTAT1 can modulate perforin production, HNSCC patient-derived NK cells were treated with vehicle, […], or 10 uM of pSTAT1i inhibitor Fludarabine for 24 hrs, washed, and co-cultured with Cal27 cells for 4 hrs.
HNSCC NK cells were treated with vehicle, 12 mM metformin, 50 ng CXCL1, or 10 uM pSTAT3 inhibitor BP-1012 and co-cultured with Cal27 cells for 4 hrs. Supernatant was collected for ELISA and analyzed by one way ANOVA. n=5.

The subject of the next test is pSTAT1. The experiment in a line: Western blot of HNSCC NK cell lysates, pSTAT1. The note with it: metformin or 50 ng CXCL1, 24 hrs, FIG. 3A/3B. Type of test: cell-based, Human. The protocol: NK92, Cal27, UMSCC47 and HN5 cells were cultured with drug as described. Cells were collected in RIPA (0.05% sodium deoxycholate, […], 0.1% SDS, 1% NP-40) and protein content was analyzed by Pierce BCA kit (Thermo 23225). 50 ug of protein was diluted in 1×loading buffer (SDS, bromophenol blue, 47% glycerol, Tris 0.5M pH 6.8, 0.2 mM DTT-G) and heated to 90° C. for 3 minutes. Prepared lysate was loaded into gradient gels (Biorad 4561093) and run at 85V for 1.5 hour in Biorad casing with a Biorad powerpack in 1×running buffer (Tris, Glycine, SDS). Gels were transferred on nitrocellulose and run at 100V on bench for 1 hour in 1×transfer buffer (Tris, Glycine). […] Images were analyzed in Image Studio Lite V 5.2.
To determine what those pathways could be, pathways known to be affected by both metformin and CXCL1 were investigated. pSTAT3 and mTOR are known to be increased by activation of the CXCR2 receptor, and mTOR activation can inhibit pSTAT1 expression. […] Therefore, HNSCC patient-derived NK cells treated with metformin, CXCL1, or CXCR2i (navaxarin) were collected and analyzed by western blot analysis. Head and neck squamous cell carcinoma (HNSCC) natural killer (NK) cells were treated with metformin, 50 ng CXCL1, or 10 uM CXCR2i (navarixin) for 24 hrs and collected for lysates analyzed by western blot analysis (FIG. 3A).
On the technique in general: Immunoblotting shows a protein as a band on a membrane.

The next test relates to pSTAT3. The experiment in a line: Western blot of HNSCC NK cell lysates, pSTAT3. Type of test: cell-based, Human. The note with it: metformin or 50 ng CXCL1, 24 hrs; western blot, FIG. 3A/3B. The method, then:
NK92, Cal27, UMSCC47 and HN5 cells were cultured with drug as described. Cells were collected in RIPA (0.05% sodium deoxycholate, […], 0.1% SDS, 1% NP-40) and protein content was analyzed by Pierce BCA kit (Thermo 23225). 50 ug of protein was diluted in 1×loading buffer (SDS, bromophenol blue, 47% glycerol, Tris 0.5M pH 6.8, 0.2 mM DTT-G) and heated to 90° C. for 3 minutes. Prepared lysate was loaded into gradient gels (Biorad 4561093) and run at 85V for 1.5 hour in Biorad casing with a Biorad powerpack in 1×running buffer (Tris, Glycine, SDS). Gels were transferred on nitrocellulose and run at 100V on bench for 1 hour in 1×transfer buffer (Tris, Glycine). Membranes were blocked in 5% BSA in TBS for 1 hr, washed, and incubated in primary diluted in 2% BSA in TBS overnight. Membranes were washed and incubated in Licor secondary (Licor 926-32211 and 925-68070) in 5% BSA in TBS for 1 hr. Membranes were washed and imaged on a Licor Odyssey Clx. Images were analyzed in Image Studio Lite V 5.2.
To determine what those pathways could be, pathways known to be affected by both metformin and CXCL1 were investigated. pSTAT3 and mTOR are known to be increased by activation of the CXCR2 receptor, and mTOR activation can inhibit pSTAT1 expression. Metformin is also hypothesized to inhibit pSTAT3 and mTOR in NK cells. Therefore, HNSCC patient-derived NK cells treated with metformin, CXCL1, or CXCR2i (navaxarin) were collected and analyzed by western blot analysis. Head and neck squamous cell carcinoma (HNSCC) natural killer (NK) cells were treated with metformin, 50 ng CXCL1, or 10 uM CXCR2i (navarixin) for 24 hrs and collected for lysates analyzed by western blot analysis (FIG. 3A).

A further test concerns CXCL1. Description: Patient plasma CXCL1 ELISA, trial NCT04414540 (pembrolizumab and metformin). Type of test: in vivo, Human.
The next test deals with HNC NK cells. The experiment in a line: RNA-seq of metformin treated HNSCC patient-derived NK cells. Type of test: cell-based, Human. The note with it: 12 mM metformin 24 hrs. The method, then: HNC NK cells were isolated as above and were treated with vehicle or 12 mM metformin for 24 hrs. Cells were washed, suspended in CyroStor, and frozen. Samples were sent to Genewiz/Azenta for standard RNA-seq profiling. Sequence reads were aligned to the current reference […] genome (GRCh38) using the STAR aligner (43,44) and the reads aligned to each known gene were counted based on the latest GENCODE definitions of gene features.

A short description of test [3]: Peripheral blood cell populations and serum cytokines of HNSCC patients after metformin treatment. Type of test: in vivo, Human. The method, then:
An Unpaired 2-tailed T Test With Welch's correction was used for analysis between flow cytometry in controls versus HNSCC patients. A 2-tailed Student's t test was used to compare differences between HNSCC patients before and after treatment in flow cytometry and cytokine experiments. Differences in immune cell populations between three groups were compared by one-way ANOVA with specific post-hoc contrasts. NKCA data were compared using a paired t test. Statistical analysis was performed in GraphPad Prism (V10). Differences between groups were considered statistically significant when P<0.05.

[4] abbreviates: patient serum cytokine profile, after metformin.
[5] abbreviates: patients, after metformin treatment.

Structures are written as SMILES. Entries after “also recorded” stand apart in the source; their conditions may differ.

As for `CN(C)C(=N)N=C(N)N` [metformin, Metformin], the CXCL1 supernatant levels result in test [1] (HNSCC patient-derived NK cells treated 24 hrs, n=10, FIG. 1) is “inhibits CXCL1 release; also recorded: significantly reduced CXCL1 supernatant levels”. Moreover, in test [1] (single agent (12 mM metformin, 10 uM everolimus or 10 uM BP-1-102) 24 hr, fresh media 24 hrs, n=5, FIG. 8), the CXCL1 secretion entry is listed as “reduces CXCL1”. The perforin result in test [2] (12 mM Metformin in pSTAT1-inhibited (10 uM Fludarabine) NK cells, Cal27 co-culture 4 hrs, FIG. 6) is recorded as “rescued to baseline”. In addition, in test [2] (12 mM metformin or 50 ng CXCL1, Cal27 target cells 4 hours, n=8, FIG. 2), the perforin production entry was “increased perforin”. Besides, the pSTAT1 result in the test with pSTAT1 is reported as “increases pSTAT1; also recorded: increase in pSTAT1”. In addition, the pSTAT3 entry with pSTAT3 is listed as “decreases pSTAT3; also recorded: reduction of pSTAT3”. Moreover, in the test with CXCL1 (post-metformin and pembrolizumab combination (week 4), n=5), the “circulating CXCL1” value was “decrease was not retained”. Besides, the “circulating CXCL1” value in the test with CXCL1 (post-metformin only vs pre-treatment, n=5, FIG. 9) is reported as “decreased”. In addition, the “circulating CXCL1” value in the test on CXCL1 (post-metformin only vs pre-treatment, n=5, FIG. 9, listed as Metformin) is “reduced circulating CXCL1”. Further, in the test with HNC NK cells, the “CXCL1 expression (RNA-seq)” value is “significantly downregulated CXCL1”. In test [3] (circulating NK and NKT cells, after metformin treatment), the “expression of NKG2D” value is “increasing expression of NKG2D back to levels seen in healthy controls”. In test [3] (setting [4]), the IL-2 result is “increasing” and the TNF-α entry is listed as “increasing”. In test [3] (setting [5]), the TEM cells entry is “larger population”; the “circulating NK and NKT cell populations” value was “partially restored”.
